Measured values: US5965088A, “Method for providing rapid disinfection of contact lenses” (priority 1997, dated 1999)
Like-named read-outs stand apart in the source and are kept apart here.

System: Candida albicans (ATCC 10231)
Experiment: Antimicrobial efficacy (stand-alone log reduction), C. albicans
Type: cell-based
Conditions: for log reduction at 4 ppm / log reduction at 4 µg/mL: Candida albicans; for log reduction at 4 µg/mL: 4.0 ppm alexidine in ReNu MPS; for Log Reduction C. albicans: PAPB 0.0
Description: This Example illustrates the microbiocidal efficacy of solutions according to the present invention. The antimicrobial efficacy of each of various compositions for the chemical disinfection of contact lenses was evaluated. Microbial challenge inoculums were prepared using Pseudomonas aeruginosa (ATCC 9027), Staphylococcus aureus (ATCC 6538), Serratia marcescens (ATCC 13880), Candida albicans (ATCC 10231), and Fusarium solani (ATCC 36031). The test organisms were cultured on appropriate agar and the cultures were harvested using sterile DPBST (Dulbecco's Phosphate Buffered Saline plus 0.05% w/v polysorbate 80) or a suitable diluent and transferred to a suitable vessel. Spore suspensions were filtered through sterile glass wool to remove hyphal fragments. Serratia marcescens, as appropriate, was filtered (eg., through a 1.2 μ filter) to clarify the suspension. After harvesting, the suspension was centrifuged at no more than 5000× g for a maximum of 30 minutes at 20-25° C. The supernatant was poured off and resuspended in DPBST or other suitable diluent. The suspension was centrifuged a second time, and resuspended in DPBST or other suitable diluent. All challenge bacterial and fungal cell suspensions were adjusted with DPBST or other suitable diluent to 1×10^7 -10^8 cfu/mL. The appropriate cell concentration may be estimated by measuring the turbidity of the suspension, for example using a spectrophotometer at a preselected wavelength, for example 490 nm. One tube was prepared containing a minimum of 10 mL of test solution per challenge organism. Each tube of the solution to be tested was inoculated with a suspension of the test organism sufficient to provide a final count of 1.0×10^5 -10^6 cfu/mL, the volume of the inoculum not exceeding 1% of the sample volume. Dispersion of the inoculum was ensured by vortexing the sample for at least 15 seconds. The inoculated product was stored at 10-25° C. Aliquots in the amount of 1.0 mL were taken of the inoculated product for determination of viable counts after certain time periods of disinfection. The time points for the bacteria were 25, 50, 75, and 100% of the minimum disinfection time. Yeast and mold were tested at an additional timepoint of at least 400% of the minimum disinfection time. The suspension was mixed well by vortexing vigorously for at least 5 second. The 1.0 mL aliquots removed at the specified time intervals were subjected to a suitable series of decimal dilutions in validated neutralizing media. The suspensions were mixed vigorously and incubated for a suitable period of time to allow for neutralization of the microbial agent. The viable count of organisms was determined in appropriate dilutions by preparation of triplicate plates of trypticase soy (TSA) agar for bacteria and Sabouraud dextrose agar (SDA) for mold and yeast. The bacterial recovery plates were incubated at 30-35° C. for 2-4 days. The yeast was incubated at 20-30° C. for 2-4 days and mold recovery plates at 20-25° C. for 3-7 days. The average number of colony forming units was determined on countable plates. Countable plates refer to 30-300 cfu/plates for bacteria and yeast, and 8 to 80 cfu/plate for mold except when colonies are observed only for the 10^0 or 10^-1 dilution plates. The microbial reduction was then calculated at the specified time points. […] Following inoculation in a validated neutralizing broth and incubation for an appropriate period of time, the inoculum control must be between 1.0×10^5 -1.0×10^6 cfu/mL
The solutions were evaluated based on the performance requirement referred to as the "Stand-Alone Procedure for Disinfecting Products" (hereafter the "stand-alone test") and is based on the Disinfection Efficacy Testing for contact lens care products under the Draft Premarket Notification (510(k)) Guidance Document For Contact Lens Care Products dated Apr. 1, 1996, prepared by the U.S. Food and Drug Administration, Division of Ophthalmic Devices. […]

CCCCC(CC)CNC(=N)NC(=N)NCCCCCCNC(=N)NC(=N)NCC(CC)CCCC.Cl.Cl (centres unmarked) [Alexidine.2HCl, 1,1 '-hexamethylenebis(5-(2-ethylhexyl)-biguanide) dihydrochloride]
Log Reduction (4.0 ppm, Ex. 8, different batch aged 19 months at 25 °C, 15 min, dihydrochloride): < 1 log | log reduction at 4 ppm (ATCC10231, 2.5 min, 4.0 ppm, aged 18 months, Exp. 1, 2.5 min, read-out: Log Reduction): 0 | log reduction at 4 ppm (ATCC10231, 2.5 min, 4.0 ppm, aged 18 months, Exp. 2, 2.5 min, read-out: Log Reduction): 0.1 | log reduction at 4 ppm (ATCC10231, 2.5 min, 4.0 ppm, aged 18 months, Exp. 3, 2.5 min, read-out: Log Reduction): 0 | log reduction at 4 ppm (ATCC10231, 5 min, 4.0 ppm, aged 18 months, Exp. 1, 5.0 min, read-out: Log Reduction): 0 | log reduction at 4 ppm (ATCC10231, 5 min, 4.0 ppm, aged 18 months, Exp. 2, 5.0 min, read-out: Log Reduction): 0.1 | log reduction at 4 ppm (ATCC10231, 5 min, 4.0 ppm, aged 18 months, Exp. 3, 5.0 min, read-out: Log Reduction): 0 | log reduction at 4 ppm (ATCC10231, 0.125 h, 4.0 ppm, aged 18 months, Exp. 1, 7.5 min, read-out: Log Reduction): 0.6 | log reduction at 4 ppm (ATCC10231, 0.125 h, 4.0 ppm, aged 18 months, Exp. 2, 7.5 min, read-out: Log Reduction): 0.5 | log reduction at 4 ppm (ATCC10231, 0.125 h, 4.0 ppm, aged 18 months, Exp. 3, 7.5 min, read-out: Log Reduction): 0.4 | log reduction at 4 ppm (ATCC10231, 10 min, 4.0 ppm, aged 18 months, Exp. 1, 10.0 min, read-out: Log Reduction): 0.7 | log reduction at 4 ppm (ATCC10231, 10 min, 4.0 ppm, aged 18 months, Exp. 2, 10.0 min, read-out: Log Reduction): 0.6 | log reduction at 4 ppm (ATCC10231, 10 min, 4.0 ppm, aged 18 months, Exp. 3, 10.0 min, read-out: Log Reduction): 0.4 | log reduction at 4 ppm (ATCC10231, 0.25 h, 4.0 ppm, Ex. 6, aged 19 months at 25 °C, 15 min): 1.9 | log reduction at 4 ppm (ATCC10231, 0.25 h, 4.0 ppm, Ex. 7, different lot aged 18 months, 15 min, read-out: Log Reduction): 1 | log reduction at 4 ppm (ATCC10231, 0.25 h, 4.0 ppm, Ex. 8, different batch aged 19 months at 25 °C, 15 min, read-out: Log Reduction): 0.9 | log reduction at 4 ppm (ATCC10231, 0.5 h, 4.0 ppm, Ex. 6, aged 19 months at 25 °C, 30 min, read-out: Log Reduction): 2.5 | log reduction at 4 ppm (ATCC10231, 0.5 h, 4.0 ppm, Ex. 7, different lot aged 18 months, 30 min, read-out: Log Reduction): 1.7 | log reduction at 4 ppm (ATCC10231, 0.5 h, 4.0 ppm, Ex. 8, different batch aged 19 months at 25 °C, 30 min, read-out: Log Reduction): 1.7 | log reduction at 4 ppm (ATCC10231, 40 min, 4.0 ppm, aged 18 months, Exp. 1, 40.0 min, read-out: Log Reduction): 2.1 | log reduction at 4 ppm (ATCC10231, 40 min, 4.0 ppm, aged 18 months, Exp. 2, 40.0 min, read-out: Log Reduction): 1 | log reduction at 4 ppm (ATCC10231, 40 min, 4.0 ppm, aged 18 months, Exp. 3, 40.0 min, read-out: Log Reduction): 1 | log reduction at 4 ppm (ATCC10231, 0.75 h, 4.0 ppm, Ex. 6, aged 19 months at 25 °C, 45 min): 2.7 | log reduction at 4 ppm (ATCC10231, 0.75 h, 4.0 ppm, Ex. 7, different lot aged 18 months, 45 min, read-out: Log Reduction): 1.9 | log reduction at 4 ppm (ATCC10231, 0.75 h, 4.0 ppm, Ex. 8, different batch aged 19 months at 25 °C, 45 min): 1.8 | log reduction at 4 µg/mL (ATCC10231, 1 h, 1 hr): 2.9 | log reduction at 4 ppm (ATCC10231, 1 h, 4.0 ppm, Ex. 6, aged 19 months at 25 °C, 60 min, read-out: Log Reduction): 2.8 | log reduction at 4 ppm (ATCC10231, 1 h, 4.0 ppm, Ex. 7, different lot aged 18 months, 60 min, read-out: Log Reduction): 2.1 | log reduction at 4 ppm (ATCC10231, 1 h, 4.0 ppm, Ex. 8, different batch aged 19 months at 25 °C, 60 min, read-out: Log Reduction): 1.9 | log reduction at 4 µg/mL (ATCC10231, 2 h, 2 hr): 4.3 | log reduction at 4 µg/mL (ATCC10231, 3 h, 3 hr): > 4.7 | log reduction at 4 µg/mL (ATCC10231, 4 h, 4 hr): 3.9 | log reduction at 4 ppm (ATCC10231, 4 h, 4.0 ppm, Ex. 6, aged 19 months at 25 °C, 4 h, read-out: Log Reduction): 3.4 | log reduction at 4 ppm (ATCC10231, 4 h, 4.0 ppm, Ex. 7, different lot aged 18 months, 4 hrs): 3.1 | log reduction at 4 ppm (ATCC10231, 4 h, 4.0 ppm, Ex. 8, different batch aged 19 months at 25 °C, 4 hrs, read-out: Log Reduction): 2.6 | log reduction at 4 µg/mL (ATCC10231, 24 h, 24 hr): 4.6 | Log Reduction C. albicans (alexidine 0.5 ppm, 5 min): 0.3 log | Log Reduction C. albicans (alexidine 0.5 ppm, 15 min): 1.0 log | Log Reduction C. albicans (alexidine 0.5 ppm, 30 min): -0.2 log | Log Reduction C. albicans (alexidine 0.5 ppm, 60 min): -0.1 log | Log Reduction C. albicans (alexidine 2.6 ppm, 5 min): 0.4 log | Log Reduction C. albicans (alexidine 2.6 ppm, 15 min): 0.5 log | Log Reduction C. albicans (alexidine 2.6 ppm, 30 min): 0.5 log | Log Reduction C. albicans (alexidine 2.6 ppm, 60 min): 1.4 log
